# Where “and” joins values, the source holds several entries; their conditions need not be identical. Identical values can stand only once.
# System: innately activated TLR4 signal in P rat VTA
# Assay: TLR4 signaling in P rat VTA after systemic neurosteroid (immunoblot, MCP-1 ELISA)
# Type: in vivo
# Details: 45 minutes
# Method: Immunoblotting for whole VTA lysates was done as previously described (Carlson et al, 2013). Briefly, VTA micropunches (1 mm thick) were lysed with CelLytic MT (dialyzable mild detergent, bicine, and 150 mM NaCl; Sigma-Aldrich) and protease and phosphatase inhibitor cocktail according to the manufacturer's instructions. Total protein was determined by the BCA assay. The proteins (10 μg/lane) were resolved by NuPAGE™ 4-12% Bis-Tris Midi Protein Gel (Thermo Fisher, Waltham, Mass.) electrophoresis and transferred using the iBlot 2 Dry Blotting System (Thermo Fisher, Waltham, Mass.). Blots were then exposed to an antibody for β-actin for normalization. Proteins were detected with enhanced chemilumenescence (GE Healthcare, Amersham, UK). Membranes were exposed to film under non-saturating conditions. Densitometric analysis was conducted using NIH Image 1.57.
# Animals. Selectively bred, but alcohol naïve Alcohol-preferring (P) rats (male, 3-4 months old; 250-550 g) (n=7-9/group) were obtained from the Alcohol Research Center, Indiana University School of Medicine, Animals were double housed in Plexiglas cages containing corn cob bedding and food and water was available ad libitum. The colony room was maintained on a normal 12 hr light-dark cycle (light onset at 0700 hr). Procedures followed National Institutes of Health Guidelines under UNC institutional Animal Care and Use Committee approved protocols at University of North Carolina School of Medicine. Rats were habituated to handling for 7 days prior to administration of 3α,5α-THP (15 mg/kg, IP), pregnenolone (75 mg/kg, IP), 3α,5α-THDOC (15 mg/kg, IP), or vehicle (45% w/v 2-hydroxypropyl-p-cyclodextrin) and returned to their home cage. Rats were sacrificed after 45 minutes and the brain was removed and frozen at −80° C. until VTA micropunches were collected from 1 mm cryostat brain sections. This time point was selected because 3α,5α-THP is rapidly metabolized in vivo (Purdy et al, 1990), but has behavioral and pharmacological activity at this time point (Crawley et al, 1986).
# ELISA. Brain tissue micropunches were lysed with Cellyte MT and the extracts were assayed for protein content by the BCA procedure (Pierce) and for MCP-1 using the rat MCP-1 ELISA kit (Raybiotech—ERC-MCP-1-CL; Norcross, Ga., USA) or for fracktalkine using the rat fractalkine ELISA kit (Raybiotech—ERC-CX3CL1-CL; Norcross, Ga., USA) as per manufacturer's instructions.
# Since the neurosteroids inhibited the TLR4 activation signal in cultured macrophage cells, experiments were conducted to determine whether this also occurs in the brain. Selectively bred P rats that have an innately activated TLR4 signal in the VTA (Liu J, et al. (2011). Proc Natl Acad Sci USA 108(11): 4465-4470), were administered 3α,5α-THP (15 mg/kg, IP) or pregnenolone (75 mg/kg, IP), sacrificed after 45 minutes and examined for TLR4 signaling using parallel measures. […] 3α,5α-THP administration reduced the levels of MCP-1 by 20±9% (p<0.05), TRAF6 by 19±3% (p<0.0001), and CRF by 28±9% (p<0.01), with no effect on TLR4 protein expression (FIG. 4A). Pregnenolone administration had no effect on TRAF6, CRF, or TLR4.
Structure (SMILES),"effect on TLR4 protein expression in VTA (15 mg/kg IP, P rats)","reduction of CRF levels in VTA (15 mg/kg IP, male P rats)","reduction of TRAF6 levels in VTA (15 mg/kg IP, male P rats)","reduction of MCP-1 levels in VTA (15 mg/kg IP, male P rats, ELISA)","effect on CRF in VTA (75 mg/kg IP, P rats)","effect on TLR4 in VTA (75 mg/kg IP, P rats)","effect on TRAF6 in VTA (75 mg/kg IP, P rats)"
"CC(=O)[C@H]1CC[C@H]2[C@@H]3CC[C@H]4C[C@H](O)CC[C@]4(C)[C@H]3CC[C@]12C [3α,5α-THP, (3α,5α)3-hydroxypregnan-20-one]",no effect,28±9% and ~30%,19±3% and ~20%,20±9% and ~20%,–,–,–
CC(=O)[C@H]1CC[C@H]2[C@@H]3CC=C4C[C@@H](O)CC[C@]4(C)[C@H]3CC[C@]12C [pregnenolone],–,–,–,–,no effect,no effect,no effect

# From patent publication US20210205329A1 (The University of North Carolina at Chapel Hill, priority 2018, published 2021)
